{"source": "patent US12622945B2", "about": "“Hard tissue therapeutics” (OrthoTrophix, Inc., priority 2020, dated 2026)", "key": {"[1]": {"tested_on": "subjects with bilateral knee osteoarthritis", "assay": "Multicenter, randomized double-blind, placebo-controlled clinical study in bilateral knee osteoarthritis", "type": "in vivo, human", "conditions": "IA injections", "description": "No other doses of drug or placebo were administered.\nMRI of both knees were obtained from these 93 subjects at baseline, 6 and/or 12 months. They were sent to the central readers of cartilage thickness and 3D bone shape, respectively. Both central readers were blinded to the treatment assignment and clinical data throughout their analysis process.\nFor the 3D bone shape analyses, its central reader first made a qualification review of all MRI images from the 93 subjects since they were obtained primarily for cartilage thickness measurement.\nMRIs from the remaining 78 subjects (156 knees: 78 Index and 78 Control) were qualified for analysis of 3D shape of the knee joint bones (B-scores of femur, tibia, and patella).\nIf all clinical inclusion and exclusion criteria were met, MRIs of both knees were obtained and evaluated by a central reader to determine the ICRS grade (gICRS) of each knee as the final screening criterion. […]\nVital signs were also monitored after the injections.\nAdverse events and concomitant medications were recorded.\nAll KOOS subscale scores, WOMAC Total score and subscale scores, MRI-based patello-femoral and tibiofemoral cartilage thickness, and MRI-based subchondral bone area and 3D bone shape were analyzed.\nMRI images were provided to central readers for cartilage and subchondral bone measures, respectively. Central readers were blind as to treatment assignment. […]"}, "[2]": {"conditions": "in vivo"}}, "note": "Entries after “also recorded” stand apart in the source; their conditions may differ. Where no end group is shown, it is not given here."}
{"substance": "TDLQERGDNDISPFSGDGQPFKD-NH2 (C-terminus assumed) [SEQ ID No: 10]", "values": [{"measurement": "adverse events", "setting": "[1]", "value": "no severe adverse events that were related to the peptide; also recorded: mild or moderate, transient"}, {"measurement": "safety and tolerability", "setting": "[1]", "value": "safe and well tolerated"}, {"measurement": "biological effects on cell types, tissues, or organs other than hard tissues", "setting": "[2]", "value": "never demonstrated biological effects of the peptide on cell types, tissues, or organs other than cartilage, bone, and dentin"}]}
